Where two headings read alike, the source gives them in different places.
How the values were obtained:
[1] = Salt dependence of Mango/TO1-Biotin fluorescence: Mg2+ titration; conditions: in the presence of potassium; Mg2+ 256 mM
Protocol: (§1) FIG. 10|Salt dependence of new Mango variants. Dependence of fluorescence of each Mango for (a) K^+, (b) Na^+ in place of K^+, and (c) Mg^2+ ions in a buffer containing 140 mM K^+. […] 10 mM Tris buffer (pH 7.2) was used in place of phosphate of the WB buffer to avoid monovalent counter ions. Color-coding is as follows: Black—Mango I, Blue—Mango II, Green—Mango III, Orange—Mango IV. Hill coefficients are fitted to dark points. Points in lighter shade have been excluded from the fit. Error bars are standard deviations of three replicates.

[2] = original RNA Mango, earlier work; read-out: Kd for TO3-Biotin; cited from earlier work
[3] = Salt dependence of Mango/TO1-Biotin fluorescence: Na+ in place of K+; assay type: binding
Protocol: as §1

[4] = Salt dependence of Mango/TO1-Biotin fluorescence: K+ titration; assay type: binding; conditions: for Kd / Hill Coefficients K^+: 25 nM RNA, 50 nM TO1-Biotin, 10 mM Tris pH 7.2; for Hill Coefficients K^+: * estimated from initial rise of fluorescence
Protocol: as §1

[5] = Photobleaching under constant illumination; conditions: identical illumination conditions, on average
Protocol: FIG. 16|Formation of 5S-Mango foci and their dynamics in live cells. (a) 5S-Mango IV imaged post cell fixation at 5, 15, 30 and 60 mins after transfection using Lipofectamine based CRISPRMAX transfection reagent. […] (c) Root mean-squared displacement (RMSD) of three observed foci with different diffusive behaviors, fast (Green), slow (Blue) and static (Red) shown in Video 3. Scale bars are 10 μm and arrows indicate foci of interest. (d) Normalized photobleaching traces of 5S-F30-Mango I and IV compared to 5S-F30-dBroccoli under constant illumination with an exposure time of 200 ms. Photobleaching half-lives are stated in the table adjacent and were calculated from an exponential fit of each curve.

[6] = Brightness and photophysics of Mango fluorophore complexes; assay type: physicochemical
Source text: (§2) FIG. 2|RNA Mango I, II, III and IV core sequences and their properties. (a) Color coded alignment of RNA Mango I, II, III and IV. G residues in yellow are protected from DMS cleavage (data from panel d) when folded in the presence of fluorophore. Quadruplex stacks and their associated propeller sequences are numbered 1 through 4. The GAAA isolation motif of Mango I, together with two adenines essential for binding, are shown in green and red respectively. Purple shading represents a flanking stem region common for all four Mango aptamers. Schematic: A tertiary structure schematic of Mango I, showing tier 1, 2 and 3 of its quadruplex structure (T1, T2 and T3) and color-coded as in (a). […] Bottom: Top view of the Mango I core (PBD ID: 5V3F), showing the T3 tier of the quadruplex and relevant propeller residues, color coding matches the schematic and panel a. […] KD values are shown next to each titration. (c) Same as for panel b but using 20 nM TO3-Biotin. Data for panels b and c have been normalized such that Mango I has a maximum fluorescence of 1. Error bars are standard deviation of three replicates. (d) DMS chemical protection patterns for the four Mango aptamers. 3′ end-labelled RNA (terminal ^32pCp shown as a black asterisk) was subjected to DMS chemical modification followed by reduction by NaBH4 and aniline cleavage as described in the methods. […] Legend: T1—denatured T1 ladder; OH—partial alkaline hydrolysis ladder; (−) DMS—denatured reaction with ddH2O added in place of DMS; 80° C.
FIG. 13|Photophysics: excitation/emission. (a) Excitation (dark curve) and emission (light curve) spectra of each Mango. All Mangos have Δex max=510 nm and Δem max=535 nm. Color-coding is as follows: Black—Mango I, Blue—Mango II, Green—Mango III, Red—Mango IV.
(§3) Fluorescence data was gathered using a Varian Cary Eclipse Spectrophotometer unless otherwise stated. […] Fluorescence was measured at the maximum excitation and emission wavelengths of each complex (FIG. 13).

[7] = Formaldehyde resistance assay; assay type: physicochemical; conditions: in vitro, TO1-Biotin
Protocol: FIG. 15|Effect of formaldehyde on Mango fluorescence. […] In (b) RNA is incubated with the corresponding amounts of formaldehyde first for one hour, then TO1-Biotin is added. Data for each panel is normalized to RFU at the 0% formaldehyde, 0 min point.
RNA Mango aptamers were incubated with TO1-Biotin in WB buffer for at least one hour until equilibrium fluorescence was reached. […] Fluorescence was measured as a kinetic run at a rate of 2 readings per minute using a Varian Cary Eclipse Fluorescence Spectrophotometer, ex/em=510±2.5/535±5 nm.

[8] = read-out: Kd for TO1-Biotin, original RNA Mango, earlier work, cited from earlier work
[9] = Brightness response to a fluorophore series; assay type: biochemical; conditions: 500 nM RNA, 10 nM fluorophore
Protocol: FIG. 53|Brightness response of MI, MII, MIII mutants and MIV to a fluorophore series. Single fluorescence point reads done in triplicate. 500 nM RNa was incubated with 10 nM fluorophore at room temperature for ˜1 h to allow folding of the RNA aptamers in 1×WB (140 mM KCl, 1 mM MgCl2, 10 mM NaH2PO4, pH 7.2.

[10] = system: Circular template; assay: Rolling circle transcription of Mango III; assay type: biochemical; conditions: room temperature, excess TO1-Biotin
Source text: FIG. 33|Rolling circle transcription of Mango III.
FIG. 34|Rolling circle transcription of Mango III. Circular construct represented here was used in FIG. 33. Purple: T7 binding site, red and orange template hybridization arms (ligation site between them). Blue Mango sequence.
This illustrates that in select embodiments Mango aptamers may be used for detection of nucleic acids in a two-step fluorescence-based detection system using the Mango aptamers as the reporter. […] Nucleic acid concentration can be discerned by a simple fluorescence reading. In these assays, the Mango III fluorescence emerged rapidly upon the addition of the RNA polymerase (FIG. 32).

[11] = Fluorescence titration, binding affinity for TO1-Biotin
Source text: as §2, §3
Where F([RNA]) is the fluorescence as a function of RNA concentration [RNA], Fmax is the maximal fluorescence of the bound complex and Funbound the fluorescence of the unbound fluorophore. When the fluorescence of Funbound was undetectable, it was set to zero.
Fluorescence readings were recorded using a Varian Cary Eclipse Spectrophotometer set to measure at the maximum excitation and emission wavelengths of the Mango II aptamer dye complex. Fluorescence titrations were performed in Mango selection buffer (WB: 140 mM KCl, 1 mM MgCl2, 10 mM NaH2PO4 pH 7.2, 0.05% Tween-20).

[12] = In vitro fluorescence of Mango tagged RNA constructs; assay type: biochemical; conditions: 40 nM TO1-Biotin, 200 nM RNA
Source text: FIG. 14|RNA scaffold diagrams. Diagrams of the 5S-Mango and U6-Mango constructs synthesized (sequences in Table 2) and their fluorescence emission as a function of wavelength after excitation at 505 nm, compared to unmodified Mango I-IV.
DNA encoding the F30 folding scaffold was modified to incorporate the Mango RNA sequences and ordered from (Intergrated DNA Technologies). The DNA was amplified by PCR to incorporate 5′ SalI and 3′ Xbal restriction sites. PCR products were digested using Fast Digest enzymes (Thermo Fisher) and ligated into SalI/Xbal linearized and Shrimp Alkaline Phosphotase (NEB) treated pAV5S-F30-2xdBroccoli (Addgene plasmid 66845, a gift from Dr S. Jaffrey). DNA encoding the full 5S-F30-Mango sequence was PCR amplified and a 5′ T7 RNA polymerase promoter introduced. DNA was transcribed in vitro with T7 RNA polymerase (NEB) at 37° C. for 16 h in 40 mM Tris-HCl, 30 mM MgCl2, 2 mM spermidine, 1 mM dithiothreitol, 5 mM rNTPs, 1 U/μl E. coli inorganic pyrophosphotase, 4 U/μl T7 RNA polymerase (pH 7.9). RNA was purified from an 8 M urea denaturing polyacrylamide […] gel followed by elution in RNA elution buffer (40 mM Tris-HCl pH 8.0, 0.5 M sodium acetate, 0.1 mM EDTA) and ethanol precipitation.

[13] = system: HEK293T cells; assay: Cellular imaging of transfected Mango tagged RNAs; assay type: cell-based; conditions: against 5S-F30-Mango-IV
Protocol: HEK293T cells were grown in Dulbecco Modified Eagle's Medium containing 10% Fetal Bovine Serum, 2 mM D-Glucose, 2 mM L-Glutamine, 1 mM Sodium Pyruvate and 100 U/ml Penicillin/Streptomycin (Thermo Fisher) and maintained at 37° C. with 5% CO2 in a humidified incubator. Cells used for imaging were cultured in Ibidi glass bottomed 8-well chamber slides (Ibidi GmbH).
RNA was transfected directly into 8-well chamber slides using the Lipofectamine-based CRISPRMAX reagent following the manufacturers guidelines (Invitrogen). Initially 125 nM RNA containing 10 mM Sodium Phosphate buffer (pH 7.2), 100 mM KCl and 1 mM MgCl2 was incubated at room temperature followed by a 1:1 dilution in OptiMEM prior to transfection. The RNA transfected was incubated at 37° C. for 1 hour in complete growth medium.
Cells were fixed in PBS containing 4% paraformaldehyde for 10 min on ice (Thermo Fisher) followed by permeabilization in 0.2% Triton X-100 for 10 min at room temperature. Cells were first blocked (2% BSA in PBS) for 30 min followed by primary antibody (1:50-1:500 dilutions) incubation for 120 min in blocking solution.
Primary antibodies used here were: Anti-Ribosomal Protein S6 (MAB5436, R&D Systems), Anti-ATP5B (ab14730, Abcam), Anti-GW182 (ab7052, Abcam), Anti-EEA-1 (ab70521, Abcam), Anti-LSm3 (NBP2-14206, Novus Biologicals), Anti-TIAR (sc-398372, Santa Cruz). Secondary antibodies used were Donkey Anti-mouse and Donkey Anti-Rabbit Alexa Fluor 680 (Molecular Probes). Primary antibodies were washed three times for 20 min each in blocking solution followed by incubation with secondary antibody at 1:500 dilution for 60 min, which was subsequently washed as above.
To visualize the nuclear boundary in live cells, a plasmid expressing a fluorescently tagged histone protein (EBFP2-H2B-6, Addgene plasmid 55243) was transfected using FuGene 6 (Promega) 24 h prior to RNA transfection. […] Following incubation of the RNA transfection, the cells were washed once with PBS and replaced with live-cell imaging media (Fluorobrite DMEM supplemented with 20 mM HEPES, Invitrogen). Live and fixed cell images were taken using a Zeiss Elyra wide-field microscope by exciting at 405 nm (Blue), 488 nm (Green) and 642 nm (Far-Red) and detecting at 420-480 nm, 495-550 nm and >650 nm, respectively. Live cells were maintained at 37° C. with 5% CO2 in a stage top incubator (Tokai Hit). Images were processed using FIJI and spot detection analysis was performed on each maximum projection by the spot detector plugin in the ICY image analysis software, which detects significant foci with a pixel area 3×3 pixels.

[14] = Na+ in place of K+, 25 nM RNA, 50 nM TO1-Biotin

Mango-I: original RNA Mango aptamer; core SEQ ID NO: 1 GAAGGGACGGUGCGGAGAGGAGA (chemistry not given here) [reference compound]
effect of high levels of Mg^2+ on fluorescence [1]: strongly inhibited
Kd [2]: 0.008 µM
fluorescence in the presence of sodium ions [3]: did not fluoresce appreciably
Kd [4]: 48 ± 5 mM
Hill Coefficients K^+ [4]: 1.2 ± 0.1
bleaching half-lives longer than RNA Spinach [5]: 10 times
quantum yield of the TO1-Biotin complex [6]: 0.14
brightness of the TO1-Biotin bound complex [6]: 11,000 M^−1cm^−1
resistance to formaldehyde [7]: substantially resistant to formaldehyde
Kd [8]: ~0.003 µM
Kd ([8]; listed as RNA Mango): 0.0031 µM

Mango-III: minimal construct engineered from isolate R5-NMM-20; two-tiered G-quadruplex aptamer
effect of high levels of Mg^2+ on fluorescence [1]: only modestly inhibited
binding of TO1 fluorophore derivatives [9]: bound to a broad set of TO1 fluorophore derivatives
sensitivity [10]: 5 nM
TO1-Biotin binding affinity (in words) [11]: slightly weaker affinities than Mango-I
Hill Coefficients Na^+ [3, 14]: 0.5 ± 0.5
Kd [3, 14]: 0.8 ± 0.3 mM
Kd [4]: 0.4 ± 0.1 mM
Hill Coefficients K^+ [4]: 1.0 ± 0.8*
higher affinity of the fluorescence response to potassium and sodium ([4]; against the other Mangos): two order of magnitude
brighter than enhanced GFP (EGFP) ([6]; TO1-Biotin bound complex): 1.3 times
brightness of the TO1-Biotin bound complex [6]: 43,000 M^−1cm^−1
brighter than Mango-I ([6]; TO1-Biotin, FIG. 2b): 4 fold

U6-Mango-IV: U6 snRNA with Mango-IV in an internal stem loop; SEQ ID NO: 6896 [Mango U6-Mango-IV]
fluorescence intensity in vitro [12]: comparable fluorescence intensity to Mango IV alone
increase of the fraction of nuclear foci [13]: ~9 fold
